{"source": "patent US20230365589A1", "about": "“NOVEL AMINE DERIVATIVES” (Sumitomo Pharma Co., Ltd., priority 2020, published 2023)", "type_in_all_cases": "biochemical", "key": {"DYRK1A": {"target": "T1, DYRK1A (Homo sapiens, UniProt Q13627)", "T1 construct": "purchased Carna Biosciences, Inc. 04-130", "assay": "Inhibition test on activity of DYRK family, mobility shift assay (MSA): DYRK1A", "protocol": "(§1) [Inhibition Test on Activity of DYRK Family (DYRK1A, DYRK1B, DYRK2, and DYRK3)]\n(§2) The kinase activity was measured by mobility shift assay (MSA) method using QuickScout Screening Assist™ MSA (commercially available kit manufactured by Carna Biosciences, Inc.). The substrate of the kinase reaction used was an FITC-labeled DYRKtide peptide included in the kit. An assay buffer [20 mM HEPES, 0.01% Triton X-100™, 2 mM dithiothreitol, pH 7.5]was used to create a substrate mixture solution with a substrate (4 μM), MgCl2(20 mM), and ATP (DYRK1A: 100 μM; DYRK1B: 200 μM; DYRK2: 40 μM; and DYRK3: 20 μM). In addition, kinases (DYRK1A: manufactured by Carna Biosciences, Inc., Cat. No. 04-130; DYRK1B: manufactured by Carna Biosciences, Inc., Cat. No. 04-131; DYRK2; manufactured by Carna Biosciences, Inc., Cat. No. 04-132; and DYRK3; manufactured by Carna Biosciences, Inc., Cat. No. 04-133) were diluted with the assay buffer to prepare enzyme solutions (DYRK1A: 0.2 ng/μL; DYRK1B: 0.08 ng/μL; DYRK2: 0.04 ng/μL; and DYRK3: 0.25 ng/μL). The 10 mM solution of the test compound in DMSO was further diluted with DMSO to 10 levels of the concentration (0.00003 mM, 0.0001 mM, 0.0003 mM, 0.001 mM, 0.003 mM, 0.01 mM, 0.03 mM, 0.1 mM, 0.3 mM, and 1 mM), each of which was subjected to 25-fold dilution with the assay buffer to obtain a drug solution (4% DMSO solution). 5 μL of the drug solution or a control solution (4% DMSO-assay buffer), 5 μL of the substrate mixture solution, and 10 μL of the enzyme solution were mixed in the wells of a polypropylene 384-well plate and allowed to react at room temperature for 1 hour, and then the reaction was quenched by adding 60 μL of the termination buffer included in the kit. Subsequently, the quantities of the substrates (S) and the phosphorylated substrate (P) in the reaction solution were measured using LabChip EZ Reader II system (manufactured by Caliper Life Sciences) according to the protocol of the assay kit.\n(§3) The heights of the peaks of the “substrate” and the “phosphorylated substrate” were expressed as S and P, respectively, and a blank containing the assay buffer instead of the enzyme solution was also measured.\n(§4) The inhibition rate (%) of the test compound was calculated according to the following equation:\n(§5) Inhibition rate (%)=(1−(C−A)/(B−A))×100 • wherein, A, B, and C represent P/(P+S) of the blank well, P/(P+S) of the control solution well, and P/(P+S) of the compound-containing well, respectively.\n(§6) The IC50 value was calculated via a regression analysis of the inhibition rate and the test compound concentration (logarithmic value)."}, "DYRK2": {"target": "T2, DYRK2 (Homo sapiens, UniProt Q92630)", "T2 construct": "purchased Carna Biosciences, Inc. 04-132", "T2 sequence (Q92630 74-601 limits assumed)": "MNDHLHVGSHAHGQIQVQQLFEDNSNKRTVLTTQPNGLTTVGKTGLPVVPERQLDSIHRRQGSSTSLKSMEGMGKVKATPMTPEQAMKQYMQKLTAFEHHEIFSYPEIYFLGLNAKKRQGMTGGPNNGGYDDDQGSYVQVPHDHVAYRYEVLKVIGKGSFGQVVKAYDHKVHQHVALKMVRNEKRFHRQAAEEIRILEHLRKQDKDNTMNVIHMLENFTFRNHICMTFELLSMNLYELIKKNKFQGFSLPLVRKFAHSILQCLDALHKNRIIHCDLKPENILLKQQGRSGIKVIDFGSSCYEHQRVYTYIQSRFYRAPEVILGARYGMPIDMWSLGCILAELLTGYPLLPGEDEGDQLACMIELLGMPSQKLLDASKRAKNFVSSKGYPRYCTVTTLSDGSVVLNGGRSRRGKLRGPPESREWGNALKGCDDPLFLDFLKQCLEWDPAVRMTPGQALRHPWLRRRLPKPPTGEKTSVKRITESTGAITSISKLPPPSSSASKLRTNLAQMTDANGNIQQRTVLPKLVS", "assay": "Inhibition test on activity of DYRK family, mobility shift assay (MSA): DYRK2", "protocol": "as §1, §2, §3, §4, §5, §6\n(§7) The inhibiting activities of representative compounds of the present invention are shown against DYRK1A, DYRK1B, DYRK2, and DYRK3 in Tables."}, "DYRK3": {"target": "T3, DYRK3 (Homo sapiens, UniProt O43781)", "T3 construct": "purchased Carna Biosciences, Inc. 04-133", "T3 sequence (O43781 1-568 isoform O43781-2)": "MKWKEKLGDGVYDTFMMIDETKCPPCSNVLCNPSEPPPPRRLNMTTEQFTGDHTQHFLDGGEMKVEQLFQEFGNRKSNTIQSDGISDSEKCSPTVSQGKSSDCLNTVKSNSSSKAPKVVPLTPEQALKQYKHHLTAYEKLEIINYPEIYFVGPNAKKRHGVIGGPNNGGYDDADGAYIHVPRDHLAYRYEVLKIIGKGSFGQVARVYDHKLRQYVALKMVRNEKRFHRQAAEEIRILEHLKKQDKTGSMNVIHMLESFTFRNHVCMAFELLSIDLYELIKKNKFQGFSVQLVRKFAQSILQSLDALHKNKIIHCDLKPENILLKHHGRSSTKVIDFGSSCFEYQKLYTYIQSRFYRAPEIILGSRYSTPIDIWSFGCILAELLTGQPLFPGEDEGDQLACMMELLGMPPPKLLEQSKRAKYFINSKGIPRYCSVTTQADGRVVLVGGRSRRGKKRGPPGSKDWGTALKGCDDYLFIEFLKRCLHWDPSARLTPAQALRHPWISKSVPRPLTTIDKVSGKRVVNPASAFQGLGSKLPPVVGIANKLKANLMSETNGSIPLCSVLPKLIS", "assay": "Inhibition test on activity of DYRK family, mobility shift assay (MSA): DYRK3", "protocol": "as §1, §2, §3, §4, §5, §6, §7"}, "[1]": {"conditions": "MSA, FITC-labeled DYRKtide peptide, ATP 100 μM, read-out: Inhibitory activity DYRK 1A (IC50 class)"}, "[2]": {"conditions": "MSA, FITC-labeled DYRKtide peptide, ATP 40 μM, read-out: Inhibitory activity DYRK 2 (IC50 class)"}, "[3]": {"conditions": "MSA, FITC-labeled DYRKtide peptide, ATP 20 μM, read-out: Inhibitory activity DYRK 3 (IC50 class)"}, "[4]": {"conditions": "read-out: Inhibitory activity DYRK 1A"}, "[5]": {"conditions": "read-out: Inhibitory activity DYRK 2"}, "[6]": {"conditions": "read-out: Inhibitory activity DYRK 3"}}, "note": "Like-named read-outs stand apart in the source and are kept apart here.", "data": [{"smiles": "CN1CCC[C@@H]2[C@H](C1)NC(=O)N2c1nc2c3c(ccc2s1)OCO3", "note": "[Example 84]", "values": [{"measurement": "IC50", "setting": "DYRK1A; [1]", "value": "0.01 to 0.1", "unit": "µM"}, {"measurement": "IC50", "setting": "DYRK2; [2]", "value": "0.1 to 1", "unit": "µM"}, {"measurement": "IC50", "setting": "DYRK3; [3]", "value": "0.1 to 1", "unit": "µM"}]}, {"smiles": "CN1CCC[C@@H]2NC(=O)N(c3nc4c5c(ccc4s3)OCC5)[C@@H]2C1", "note": "(relative stereo) [Example 17, cis-3-(7,8-dihydrofuro[3,2-e][1,3]benzothiazol-2-yl)-5-methyloctahydroimidazo[4,5-c]azepin-2(1H)-one]", "values": [{"measurement": "IC50", "setting": "DYRK1A; [1]", "value": "0.01 to 0.1", "unit": "µM"}, {"measurement": "IC50", "setting": "DYRK2; [2]", "value": "≥ 1", "unit": "µM"}, {"measurement": "IC50", "setting": "DYRK3; [3]", "value": "≥ 1", "unit": "µM"}]}, {"smiles": "C#C[C@H]1C[C@@H]2[C@H](CO1)NC(=O)N2c1nc2c3c(ccc2s1)OCC3", "note": "[Example 149, (3aR,6R,7aR)-1-(7,8-dihydrofuro[3,2-e][1,3]benzothiazol-2-yl)-6-ethynylhexahydropyrano[3,4-d]imidazol-2(3H)-one]", "values": [{"measurement": "IC50", "setting": "DYRK1A; [1]", "value": "< 0.01", "unit": "µM"}, {"measurement": "IC50", "setting": "DYRK2; [2]", "value": "≥ 1", "unit": "µM"}, {"measurement": "IC50", "setting": "DYRK3; [3]", "value": "0.1 to 1", "unit": "µM"}]}, {"smiles": "C#CCN1CC[C@@H]2NC(=O)N(c3nc4c5c(ccc4s3)OCC5)[C@@H]2C1", "note": "(racemic) [Example 99, rac-(3aR,7aS)-3-(7,8-dihydrofuro[3,2-e][1,3]benzothiazol-2-yl)-5-(2-propyn-1-yl)octahydro-2H-imidazo[4,5-c]pyridin-2-one]", "values": [{"measurement": "IC50", "setting": "DYRK1A; [4]", "value": "< 0.01", "unit": "µM"}, {"measurement": "IC50", "setting": "DYRK2; [5]", "value": "0.1 to 1", "unit": "µM"}, {"measurement": "IC50", "setting": "DYRK3; [6]", "value": "0.1 to 1", "unit": "µM"}]}, {"smiles": "COC[C@@H]1[C@H](C)NC(=O)N1c1nc2c3c(ccc2s1)OCC3", "note": "[Example 44, (4S,5S)-1-(7,8-dihydrofuro[3,2-e][1,3]benzothiazol-2-yl)-5-(methoxymethyl)-4-methylimidazolidin-2-one]", "values": [{"measurement": "IC50", "setting": "DYRK1A; [1]", "value": "< 0.01", "unit": "µM"}, {"measurement": "IC50", "setting": "DYRK2; [2]", "value": "0.1 to 1", "unit": "µM"}, {"measurement": "IC50", "setting": "DYRK3; [3]", "value": "0.1 to 1", "unit": "µM"}]}, {"smiles": "O=C1N[C@H]2COC(O)C[C@H]2N1c1nc2c3c(ccc2s1)OCC3", "note": "(stereo partly drawn) [Example 150, (3aR,7aR)-1-(7,8-Dihydrofuro[3,2-e][1,3]benzothiazol-2-yl)-6-hydroxyhexahydropyrano[3,4-d]imidazol-2(3H)-one]", "values": [{"measurement": "IC50", "setting": "DYRK1A; [1]", "value": "0.01 to 0.1", "unit": "µM"}, {"measurement": "IC50", "setting": "DYRK2; [2]", "value": "0.1 to 1", "unit": "µM"}, {"measurement": "IC50", "setting": "DYRK3; [3]", "value": "0.1 to 1", "unit": "µM"}]}, {"smiles": "O=C1N[C@H]2CNC3(CC3)C[C@H]2N1c1nc2c3c(ccc2s1)OCC3", "note": "[Example 56]", "values": [{"measurement": "IC50", "setting": "DYRK1A; [1]", "value": "0.1 to 1", "unit": "µM"}, {"measurement": "IC50", "setting": "DYRK2; [2]", "value": "≥ 1", "unit": "µM"}, {"measurement": "IC50", "setting": "DYRK3; [3]", "value": "0.1 to 1", "unit": "µM"}]}, {"smiles": "O=C1N[C@@H]2[C@@H](CCNC23CC3)N1c1nc2c3c(ccc2s1)OCC3", "note": "[Example 46]", "values": [{"measurement": "IC50", "setting": "DYRK1A; [1]", "value": "0.01 to 0.1", "unit": "µM"}, {"measurement": "IC50", "setting": "DYRK2; [2]", "value": "0.1 to 1", "unit": "µM"}, {"measurement": "IC50", "setting": "DYRK3; [3]", "value": "0.1 to 1", "unit": "µM"}]}, {"smiles": "O=C1N[C@H]2[C@H](F)CNC[C@H]2N1c1nc2c3c(ccc2s1)OCC3", "note": "[Example 50]", "values": [{"measurement": "IC50", "setting": "DYRK1A; [1]", "value": "0.1 to 1", "unit": "µM"}, {"measurement": "IC50", "setting": "DYRK2; [2]", "value": "≥ 1", "unit": "µM"}, {"measurement": "IC50", "setting": "DYRK3; [3]", "value": "0.1 to 1", "unit": "µM"}]}, {"smiles": "O=C1N[C@H]2CCNCC[C@H]2N1c1nc2c3c(ccc2s1)OCC3", "note": "[Example 45]", "values": [{"measurement": "IC50", "setting": "DYRK1A; [1]", "value": "0.01 to 0.1", "unit": "µM"}, {"measurement": "IC50", "setting": "DYRK2; [2]", "value": "0.1 to 1", "unit": "µM"}, {"measurement": "IC50", "setting": "DYRK3; [3]", "value": "0.01 to 0.1", "unit": "µM"}]}, {"smiles": "CN1C[C@@H](F)[C@@H]2NC(=O)N(c3nc4c5c(ccc4s3)OCC5)[C@@H]2C1", "note": "[Example 75]", "values": [{"measurement": "IC50", "setting": "DYRK1A; [1]", "value": "0.01 to 0.1", "unit": "µM"}, {"measurement": "IC50", "setting": "DYRK2; [2]", "value": "≥ 1", "unit": "µM"}, {"measurement": "IC50", "setting": "DYRK3; [3]", "value": "≥ 1", "unit": "µM"}]}, {"smiles": "C[C@@H]1NC(=O)N(c2nc3c4c(ccc3s2)OCC4)[C@@H]1CN1CCC(F)(F)C1", "note": "[Example 117, (4S,5R)-5-[(3,3-difluoropyrrolidin-1-yl)methyl]-1-(7,8-dihydrofuro[3,2-e][1,3]benzothiazol-2-yl)-4-methylimidazolidin-2-one]", "values": [{"measurement": "IC50", "setting": "DYRK1A; [4]", "value": "0.01 to 0.1", "unit": "µM"}, {"measurement": "IC50", "setting": "DYRK2; [5]", "value": "≥ 1", "unit": "µM"}, {"measurement": "IC50", "setting": "DYRK3; [6]", "value": "≥ 1", "unit": "µM"}]}]}
